Assay results: patent US5525735A, “Methods for synthesizing diverse collections of pyrrolidine compounds” (AFFYMAX Technologies NV, priority 1994, dated 1996)
Where two headings read alike, the source gives them in different places.

Columns and labels:
rabbit kidney ACE [1] = biological target: T1, rabbit kidney ACE (Oryctolagus cuniculus, UniProt P12822); test: Determination of inhibition constants (Ki), fluorometric ACE assay, hydrolysis of Hippuryl-His-Leu; format: biochemical
T1 construct: purchased Sigma; host or cells: rabbit kidney
T1 sequence (P12822 34-1310): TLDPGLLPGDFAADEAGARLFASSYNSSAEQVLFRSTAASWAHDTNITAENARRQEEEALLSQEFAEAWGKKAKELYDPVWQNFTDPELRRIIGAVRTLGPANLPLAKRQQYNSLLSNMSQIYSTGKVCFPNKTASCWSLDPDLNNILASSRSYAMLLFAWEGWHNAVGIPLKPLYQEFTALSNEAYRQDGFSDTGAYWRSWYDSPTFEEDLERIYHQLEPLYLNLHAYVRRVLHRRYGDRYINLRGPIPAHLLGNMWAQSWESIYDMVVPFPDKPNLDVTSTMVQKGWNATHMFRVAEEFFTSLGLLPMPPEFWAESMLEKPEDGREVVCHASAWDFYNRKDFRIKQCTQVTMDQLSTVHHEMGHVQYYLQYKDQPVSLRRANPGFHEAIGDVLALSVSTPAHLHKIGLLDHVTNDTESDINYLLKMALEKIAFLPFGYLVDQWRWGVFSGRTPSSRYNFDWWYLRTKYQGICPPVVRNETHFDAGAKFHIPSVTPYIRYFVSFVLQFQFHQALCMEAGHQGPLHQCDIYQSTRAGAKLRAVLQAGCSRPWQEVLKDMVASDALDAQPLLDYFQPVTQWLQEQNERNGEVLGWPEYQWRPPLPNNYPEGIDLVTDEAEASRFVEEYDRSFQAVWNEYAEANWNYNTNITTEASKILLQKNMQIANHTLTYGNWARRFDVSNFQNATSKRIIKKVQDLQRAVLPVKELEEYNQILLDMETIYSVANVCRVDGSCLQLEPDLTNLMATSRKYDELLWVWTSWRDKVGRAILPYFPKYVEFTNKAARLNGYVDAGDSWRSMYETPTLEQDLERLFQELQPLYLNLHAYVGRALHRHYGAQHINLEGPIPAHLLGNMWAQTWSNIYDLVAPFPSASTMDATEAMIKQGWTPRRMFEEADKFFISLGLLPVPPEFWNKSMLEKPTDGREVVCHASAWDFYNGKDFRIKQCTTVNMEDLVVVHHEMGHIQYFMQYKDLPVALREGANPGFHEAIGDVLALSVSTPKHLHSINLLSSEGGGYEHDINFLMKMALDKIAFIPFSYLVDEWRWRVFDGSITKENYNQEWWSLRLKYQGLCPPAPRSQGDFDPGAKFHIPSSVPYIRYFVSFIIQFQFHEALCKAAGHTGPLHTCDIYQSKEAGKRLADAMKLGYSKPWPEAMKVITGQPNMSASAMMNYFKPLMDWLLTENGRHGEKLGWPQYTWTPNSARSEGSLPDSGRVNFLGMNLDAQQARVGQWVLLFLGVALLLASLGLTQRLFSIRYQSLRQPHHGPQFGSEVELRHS
Description: The product, His-Leu, was then derivatized to a fluorophore by the addition of 2% o-phthalaldehyde (0.1 mL) in MeOH, followed by incubation at 25° C. for 8 minutes, addition of 2N HCl (0.2 mL), and then measuring fluorescence after 15 minutes incubation at 25° C.
(§1) The fluorescence intensity (arbitrary units) was determined using an SLM Aminco model 8000 spectrofluorometer equipped with a temperature regulated cell using an excitation wavelength at 360 nm and with an emission wavelength at 490 nm. The amount of His-Leu formed with time was determined from standard curves of fluorescence versus concentration of His-Leu (Sigma).
Inhibition constants were determined from double reciprocal plots of rate of product formation versus substrate concentration in the absence and presence of inhibitor.

rabbit kidney ACE [2] = biological target: T1, rabbit kidney ACE; test: in vitro inhibition of ACE by soluble compound pools (deconvolution analysis of library, fluorometric assay, IC50); format: biochemical; settings: identified by iterative assay and sub-library resynthesis
Excerpt: Functionalized prolines and proline analogs are frequently found as the C-terminal residue in numerous ACE inhibitors. Using the methods described herein, a library of prolines and proline analogs has been prepared. The library was formed by the split synthesis method^35, using four amino acids, four aldehydes, five olefins, and three mercaptoacyl chlorides as shown in FIG. 3 below. […] After cleavage from the resin (10% TFA in dichloromethane) and deacetylation of the protected mercaptoacyl proline products with ethylenediamine, the library was screened for in vitro inhibition of ACE^33 as soluble compound pools through four iterations of assay and sub-library resynthesis. At each step of this deconvolution analysis, the building block affording the most inhibitory pool was selected for the subsequent sub-library resynthesis.
To each product was added 200 μ.LAMBDA. of 1.0M ethylenediamine in methanol under nitrogen. […] The ACE inhibitory activity of each pool was immediately determined. […]
as §1, with “(Sigma). […]” for “(Sigma).”

| Ki (rabbit kidney ACE [1]; after deacetylation, isomer assigned 2-R, read-out: Ki (individual diastereomers after deacetylation, earlier eluting isomer)) [nM] | ACE inhibitory activity in words (library deconvolution) (rabbit kidney ACE [2]) | Ki (rabbit kidney ACE [1]; 50 pM enzyme, 20 minute preincubation, assay times 10 or 20 minutes, pH 8.3, read-out: Ki (dissociation constant of the enzyme-inhibitor complex)) [nM] | Ki (rabbit kidney ACE [1]; after deacetylation, read-out: Ki (individual diastereomers after deacetylation, later eluting isomer)) [nM] | type of inhibition (rabbit kidney ACE [1]; double reciprocal plots, 50 pM enzyme, 20 minute preincubation) | fold more active than captopril (rabbit kidney ACE [1]; relative to captopril in the same assay) | Structure (SMILES) |
| --- | --- | --- | --- | --- | --- | --- |
| > 1000 | – | – | – | – | – | COC(=O)[C@@H]1C[C@H](C(=O)O)N(C(=O)[C@H](C)CS)[C@@H]1c1ccccc1 (single isomer, unassigned) [earlier eluting isomer] |
| – | potent ACE inhibitor | 0.16 ± 0.05 | ~0.16 | competitive type inhibition | approximately 3 fold | COC(=O)[C@H]1C[C@@H](C(=O)O)N(C(=O)[C@H](C)CS)[C@H]1c1ccccc1 [Compound 9, 1-(3'-thio-2'(S)-methyl-1'-oxopropyl)-5-phenyl-2,4-pyrrolidinedicarboxylicacid 4-methyl ester] |
